{"source": "patent US20040209238A1", "about": "“Cell division-visualized cell and method of production of the same, method of detection of fluorescence, method of evaluation of influence upon cell division, and method of screenig” (NAGASE & CO., LTD., priority 2002, published 2004)", "system": "human MDA435 cell (transformed with aurora A-GFP, histone H3-CFP, importin α-DsRed)", "assay": "real-time fluorescence observation of cell division in the cell division-visualized cell after addition of an agent", "type": "cell-based", "conditions": "vinblastine added to the culture fluid", "method": "As a cell to which the aforementioned plasmid DNA is introduced, human MDA435 cell (Vig et al., 1996; Sugimoto et al., 2000, 2001) was used. The human MDA435 cell was cultured in D-MEM medium containing 10% FCS (manufactured by Nissui Pharmaceutical Co., Ltd.) at 37° C. under 5% carbon dioxide in the air. Cells in the logarithmic growth phase were washed with 4 ml of 1×PBS (−), and the cells were detached by adding 1 ml of trypsin. After terminating the action of trypsin by adding 4 ml of D-MEM medium, the cell suspension was transferred into a centrifuge tube, and a part thereof was removed to subject to the measurement of cell number using a hematometer. The remaining part was centrifuged at 1000 rpm for 10 minutes, and thus recovered cells were washed by suspending in 12 ml of 1×PBS (−). This operation was repeated twice, and the cells were suspended in 1×K-PBS to give the cell density of 1.2×10^7 cells/ml.\nThe transformed cells described above were cultured in a wet chamber with controlled carbon dioxide concentration and temperature by a thermostat and a control timer of carbon dioxide introduction (Japan, manufactured by Kokensya Engineering), using a 35 mm dish (with a cover glass attached on the bottom: manufactured by ASAHI TECHNO GLASS CORPORATION) on the stage of a inverted fluorescence microscope “Eclipse TE300” (manufactured by Nikon) equipped with a objective lens “PlanApo 60×”. Then, a highly sensitive CCD camera ORCA-ER (manufactured by Hamamatsu Photonics K.K.), and an excitation/absorption filter wheel equipped with a filter set for CFP/YFP/RFP for the observation (No. 86006, manufactured by Chroma Technology Corp.) and aZ-axis motor, and a controller “BioPoint MAC5000” (manufactured by Ludl Electronic Products Ltd.) which is a control equipment of the same were used, with the use of a computer software (LuminaVision version 1.40, manufactured by Mitani Co., Ltd.) for controlling these accessories. […]", "note": "“Also recorded” adds a separate entry of the source.", "data": [{"smiles": "CC[C@]1(O)C[C@@H]2CN(CCc3c([nH]c4ccccc34)[C@@](C(=O)OC)(c3cc4c(cc3OC)N(C)[C@H]3[C@@](O)(C(=O)OC)[C@H](OC(C)=O)[C@]5(CC)C=CCN6CC[C@]43[C@@H]65)C2)C1", "note": "[vinblastine]", "values": [{"measurement": "alignment of the chromosomes on the equatorial plane (transition to the metaphase)", "setting": "cyan fluorescence (histone H3), up to 130 minutes following initiation of the observation, FIG. 2 and FIG. 3", "result": "not found even after lapse of 130 minutes; also recorded: not observed even after lapse of 130 minutes"}, {"measurement": "movement of the centrosomes toward the poles and formation of the spindle", "setting": "green fluorescence (aurora A), FIG. 2", "result": "inhibition was made on the movement of the centrosomes toward the poles"}, {"measurement": "progress of cell division, transition from the prophase to the prometaphase", "setting": "observed at intervals of 2 minutes, FIG. 2 and FIG. 3", "result": "inhibition of the transition from the prophase to the prometaphase"}]}]}
